Results: patent US9832995B2, “Microbial composition” (Rohm and Haas Company, priority 2011, dated 2017)
Values joined by “and” are separate entries in the source; they are usually repeats but may differ in a detail not shown here. Identical values can stand only once.

Legend:
[1] = test system: S. aureus 6538; experiment: Antimicrobial efficacy of actives against S. aureus in water; format: cell-based, Staphylococcus aureus
[2] = test system: Escherichia coli (E. coli - ATCC #10536); experiment: Synergy test: high resolution MBC microtiter plate assay, 15 seconds contact, phosphate buffer containing 35% dipropylene glycol; format: cell-based; settings: E. coli 10536; for SI (Synergy Index = Qa/QA + Qb/QB): for Qa and Qb, less than one = synergy; for MBC of the component acting alone (QA or QB; Qa with Qb = 0, or Qb with Qa = 0): complete kill in 15 seconds, phosphate buffer with 35% DPG
From the text: The concentrations and ratios may also vary under different test conditions or with different test methods.
One measure of synergy is the industrially accepted method described by Kull, F. C.; Eisman, P. C.; Sylwestrowicz, H. D. and Mayer, R. L., in Applied Microbiology 9:538-541 (1961), using the ratio determined by the formula: Qa/QA+Qb/QB=Synergy Index (“SI”) wherein: • QA=concentration of compound A (first component) in percent, acting alone, which produced an end point (MBC of Compound A). • Qa=concentration of compound A in percent, in the mixture, which produced an end point. • QB=concentration of compound B (second component) in percent, acting alone, which produced an end point (MBC of Compound B). • Qb=concentration of compound B in percent, in the mixture, which produced an end point.
When the sum Qa/QA and Qb/QB is greater than one, antagonism is indicated. […] The lower the SI, the greater is the synergy shown by that particular mixture. The minimum biocidal concentration (MBC) of a microbicide is the lowest concentration tested under a specific set of conditions that provides complete kill of the tested microorganisms.
Synergy tests were conducted using standard microliter plate assays with phosphate buffer containing 35% dipropylene glycol (DPG). In this method, a wide range of combinations of chemicals was tested by conducting high resolution MBC assays of Component (A) in the presence of various concentrations of Component (B). High resolution MBCs were determined by adding varying amounts of microbicide to one column of a microliter plate and doing subsequent […] dilutions using an automated liquid handling system to obtain a series of closely spaced endpoints. The MBC plate was inoculated one column at a time with the test microorganism. An aliquot of the inoculated well was transferred at 15 seconds to a plate containing a neutralising agent (D/E Neutralising Broth), mixed and held for 5 minutes before being transferred to a growth plate-containing trypticase soy broth (TSB). The TSB plate was incubated at 37° C. and read for the presence/absence of growth at 24 hours. The lowest level tested that provided complete kill (as evidenced by no growth in the microtitre plate) of the test organisms in 15 seconds is the minimum biocidal concentration (MBC).
The synergy of the combinations of the present invention was determined against a bacterium, Escherichia coli (E. coli—ATCC #10536), at a concentration of approximately 1×10^8 bacteria per mL. This microorganism is representative of natural contaminants in many consumer and industrial applications.

[3] = test system: Escherichia coli (E. coli - ATCC #10536); experiment: Automated assessment of efficacy in model surfactant solution (2.85% sodium cocoyl glycinate + 1.85% sodium lauroamphoacetate, pH 10), 15 seconds exposure; format: cell-based; settings: for MBC (% w/v) / MBC: 2.85% sodium cocoyl glycinate + 1.85% sodium lauroamphoacetate solution at pH 10, E. coli, component alone; for No. of replicates showing growth (out of 4) / ΔOD 450 nm = OD450 (time = 16 hours) − OD450 (time zero), Mean / ΔOD 590 nm = OD590 (time = 16 hours) − OD590 (time zero), Mean: model surfactant solution, pH 10, 15 s exposure; for MBC: Escherichia coli, ATCC10536, 15 s
Description: In these examples, the efficacy of combinations of actives were tested in a surfactant cleansing formulation comprising 2.85% sodium cocoyl glycinate and 1.85% sodium, lauroamphoacetate.
This corresponds to a 50% in use dilution with water of a neat formulation containing 5.7% cocoyl glycinate and 3.7% sodium lauroamphoacetate during hand washing.
Solutions were prepared such that the concentrations of the surfactant components and test actives were 1.1× the final desired concentration in order to allow for dilution with the bacterial inoculum in the test. The solutions were manually adjusted to pH 10.0 by dropwise addition of sodium hydroxide solution, as measured with a pH meter at ambient temperature.
The efficacy of the combinations of the present invention was determined against Escherichia coli (E. coli—ATCC #10536), at a concentration of approximately 1×10^8 bacteria per mL.
Tests were conducted using standard microliter plate assays using an automated liquid handling system. 270 μl of the surfactant test solution was pipetted into each well of the microtitre plate and 30 μl of the bacterial suspension was then added. After exactly 15 seconds of bacterial exposure, a 30 μl volume of bacterial cells was withdrawn and transferred to 270 μl of D/E quench solution. After 5 minutes in the D/E quench, the optical density (OD) was measured for each plate in turn at two specific wavelengths (450 nm and 590 nm). These provide a dual check of antimicrobial, activity, as the OD450 reading is specific for the yellow colour of D/E quench when bacterial growth is observed, whereas OD590 is specific for the initial purple colour of the D/E quench which is retained if no bacterial growth is observed. After the time zero OD measurements, plates were then incubated at 37° C. overnight (16 hours) before repeating the OD measurements, Delta OD values were calculated by subtracting […] the initial value at time zero. Bacterial growth is observed as an increase in OD450 and a decrease in ΔOD590. To identify antibacterially efficacious systems (those preventing appreciable bacterial growth after incubation), the following threshold changes in OD readings have been adopted: if (1). OD450 increases by less than 0.2 absorbance unit on incubation and (2). OD590 decreases by less than 0.35 unit on incubation. Conversely, where OD450 increases by more than 0.2 AU and OD590 decreases by more than 0.35 unit after incubation, corresponding to a colour shift from purple to yellow, the test system allows bacterial growth and is not deemed efficacious. Four replicate measurements in the same plate have been made for each test system. The number of replicate wells showing either bacterial growth or no growth is also readily assessed by eye by following the colour change.

[4] = single active alone at 0.1% w/v
[5] = single active alone at 0.2% w/v
[6] = single active alone at 0.5% w/v
[7] = single active alone at 0.175% w/v

Compound	SI (Synergy Index = Qa/QA + Qb/QB) [2]	No. of replicates showing growth (out of 4) [3, 5]	ΔOD 450 nm = OD450 (time = 16 hours) − OD450 (time zero), Mean [3, 5]	ΔOD 590 nm = OD590 (time = 16 hours) − OD590 (time zero), Mean [3, 5]	No. of replicates showing growth (out of 4) ([3]; single active alone at […] w/v)	ΔOD 450 nm = OD450 (time = 16 hours) − OD450 (time zero), Mean ([3]; single active alone at […] w/v)	ΔOD 590 nm = OD590 (time = 16 hours) − OD590 (time zero), Mean ([3]; single active alone at […] w/v)	also measured
cyclopentyl phenol	–	–	–	–	–	–	–	Log Reduction ([1]; 0.05% cyclopentyl phenol): 1.9
Oc1ccccc1C1CCCC1 [2-cyclopentylphenol]	1.00	–	–	–	–	–	–	–
Oc1ccccc1Cc1ccccc1 [2-hydroxydiphenylmethane]	1.00	4	−0.51	0.63	4	−0.49	0.64	MBC of the component acting alone (QA or QB; Qa with Qb = 0, or Qb with Qa = 0) [2]: 0.8 weight % and 0.6 weight % and 1.0 weight % and 0.5 weight %; MBC (% w/v) [3]: >0.2 % w/v; No. of replicates showing growth (out of 4) [3, 4]: 4; ΔOD 450 nm = OD450 (time = 16 hours) − OD450 (time zero), Mean [3, 4]: −0.51; ΔOD 590 nm = OD590 (time = 16 hours) − OD590 (time zero), Mean [3, 4]: 0.62
Oc1cccc2c1CCCC2 [5,6,7,8-tetrahydronaphthalen-1-ol]	–	–	–	–	–	–	–	MBC of the component acting alone (QA or QB; Qa with Qb = 0, or Qb with Qa = 0) [2]: 0.6 weight %
C=C(C)[C@@H]1CC[C@@H](C)C[C@H]1O [(1R,2S,5R)-5-methyl-2-(prop-1-en-2-yl)cyclohexanol]	1.00	–	–	–	–	–	–	–
C=C(C)C1CCC(C)CC1O (centres unmarked) [Isopulegol, 5-methyl-2-(prop-1-en-2-yl)cyclohexanol]	–	–	–	–	4	–	0.64	ΔOD 450 nm = OD450 (time = 16 hours) − OD450 (time zero), Mean [3, 6]: −0.09
Oc1ccc(C2CCCC2)cc1 [4-cyclopentylphenol]	1.00	–	–	–	–	–	–	–
C=C(C)C1CC=C(C)C(O)C1 (centres unmarked) [2-methyl-5-(prop-1-en-2-yl)cyclohex-2-enol]	1.0	–	–	–	4	–	–	Log Reduction ([1]; […] carveol): 0.08; No. of replicates showing growth (out of 4) [3, 6]: 0; ΔOD 450 nm = OD450 (time = 16 hours) − OD450 (time zero), Mean [3, 6]: 0.23; ΔOD 590 nm = OD590 (time = 16 hours) − OD590 (time zero), Mean [3, 6]: 0.20
Oc1ccc(Cc2ccccc2)cc1 [4-hydroxydiphenylmethane]	1.00	4	−0.52	0.61	4	−0.55	0.54	MBC of the component acting alone (QA or QB; Qa with Qb = 0, or Qb with Qa = 0) [2]: 1.0 weight % and 0.6 weight %; MBC (% w/v) [3]: >0.2 % w/v; No. of replicates showing growth (out of 4) [3, 4]: 4; ΔOD 450 nm = OD450 (time = 16 hours) − OD450 (time zero), Mean [3, 4]: −0.58; ΔOD 590 nm = OD590 (time = 16 hours) − OD590 (time zero), Mean [3, 4]: 0.52
C=C(C)C1CCC(C)C(O)C1 (centres unmarked) [2-methyl-5-(prop-1-en-2-yl)cyclohexanol]	1.00	4	−0.49	0.63	4	−0.43	0.66	–
Cc1ccc(C(C)C)c(O)c1O [3-isopropyl-6-methylbenzene-1,2-diol]	–	–	–	–	–	–	–	MBC [3]: > 2000 µg/mL
CC(C)(C)c1ccc(O)c(O)c1 [4-tert-butylbenzene-1,2-diol]	–	–	–	–	–	–	–	MBC [3]: > 2000 µg/mL
Cc1cc(O)c(C(C)C)cc1Cl [4-chloro-2-isopropyl-5-methylphenol, reference compound]	–	4	−0.51	0.60	4	−0.49	0.59	No. of replicates showing growth (out of 4) [3, 7]: 4; ΔOD 450 nm = OD450 (time = 16 hours) − OD450 (time zero), Mean [3, 7]: −0.49; ΔOD 590 nm = OD590 (time = 16 hours) − OD590 (time zero), Mean [3, 7]: 0.58
